Source: patent US6441006B2, “Pharmaceutical compositions and methods for use” (Targacept, Inc., priority 1998, dated 2002)

How the values were obtained:
CNS nicotinic receptors [1] = biological target: T1, CNS nicotinic receptors (Rattus norvegicus, UniProt P09483+P12390); test: Binding to relevant receptor sites; settings: calculated from IC50 values using the method of Cheng et al.
T1 construct: Ki
Method: Binding of the compounds to relevant receptor sites was determined in accordance with the techniques described in U.S. Pat. No. 5,597,919 to Dull et al. Inhibition constants (Ki values), reported in nM, were calculated from the IC50 values using the method of Cheng et al., Biochem, Pharmacol. 22:3099 (1973).

[2] = biological target: T2, muscle-type nicotinic acetylcholine receptors (Homo sapiens, UniProt P02708+P07510+Q07001); test: Interaction with muscle receptors; format: cell-based; settings: relative to (S)-(-)-nicotine
T2 construct: endogenous in cells; host or cells: TE671/RD (own knowledge of the cited US 5,597,919)
Method: (§1) The determination of the interaction of the compounds with muscle receptors was carried out in accordance with the techniques described in U.S. Pat. No. 5,597,919 to Dull et al. The maximal activation for individual compounds (Emax) was determined as a percentage of the maximal activation induced by (S)-(−)-nicotine. Reported Emax values represent the amount released relative to (S)-(−)-nicotine on a percentage basis. […] Such preferable compounds have the capability to activate human CNS receptors without activating muscle-type nicotinic acetylcholine receptors. Thus, there is provided a therapeutic window for utilization in the treatment of CNS disorders. […] The compounds begin to cause muscle effects only when employed in amounts of many times those required to activate dopamine release.

laboratory rats = test: Step-through passive avoidance, scopolamine induced amnesia; format: in vivo, rat; settings: 0.3 to 3 umol/kg subcutaneous, 0.5 umol/kg scopolamine
Method: A Gemini Avoidance System (San Diego Instruments) were used to evaluate animals in a passive avoidance experiment. During the period of habituation, laboratory rats received a subcutaneous injection of saline. On the acquisition day, each rat received a subcutaneous injection of 0.5 umol/kg scopolamine (or saline in the case of the vehicle control group) 30 minutes prior to being placed in the chambers. Five minutes following scopolamine injection, (or 25 minutes before being placed in the chamber), each rat was administered a subcutaneous injection with one of four doses of the compound. Thirty minutes following the scopolamine or vehicle injection, each rat was placed in the brightly illuminated chamber, facing away from the sliding door. After 10 seconds, the door separating the chambers opened allowing access to the dark chamber. The time to enter the dark chamber was measured. Immediately upon entering the dark chamber, the rat received a mild foot shock (0.5 mAmp) for 2 seconds. Twenty four hours following training, each rat was placed in the light chamber facing away from the sliding door. […] Statistical differences in latencies (latency during acquisition and retention trials) were analyzed by Kruskal-Wallis one-way analysis of variance on ranks followed by the either of two-tailed Mann-Whitney U-test or Newman-Keuls analog test if values of p less than 0.05 were obtained. […]

CNS nicotinic receptors [3] = biological target: T3, CNS nicotinic receptors; test: Rubidium release; format: biochemical
T3 construct: Emax, rubidium release; other: relative to 300 uM tetramethylammonium ion
Method: Rubidium release was measured using the techniques described in Bencherif et al., JPET, 279: 1413-1421 (1996). Reported EC50 values are expressed in nM, and Emax values represent the amount of rubidium ion released relative to 300 uM tetranmethylammonium ion, on a percentage basis.

dopamine release = test: Dopamine release; format: biochemical
Method: Dopamine release was measured using the techniques described in U.S. Pat. No. 5,597,919 to Dull et al. Release is expressed as a percentage of release obtained with a concentration of (S)-(−)-nicotine resulting in maximal effects. Reported EC50 values are expressed in nM, and Emax values represent the amount released relative to (S)-(−)-nicotine on a percentage basis.

[4] = tested on: ganglia-type nicotinic acetylcholine receptors; test: Interaction with ganglion receptors; format: cell-based; settings: relative to (S)-(-)-nicotine
Method: as §1, with “ganglionic” for “muscle”, “ganglia-type” for “muscle-type”, “cause” for “cause muscle”, “effects at ganglia” for “effects”
The determination of the interaction of the compounds with ganglionic receptors was carried out in accordance with the techniques described in U.S. Pat. No. 5,597,919 to Dull et al. The maximal activation for individual compounds (Emax) was determined as a percentage of the maximal activation induced by (S)-(−)-nicotine. Reported Emax values represent the amount released relative to (S)-(−)-nicotine on a percentage basis.

T2 sequence (P02708 21-457): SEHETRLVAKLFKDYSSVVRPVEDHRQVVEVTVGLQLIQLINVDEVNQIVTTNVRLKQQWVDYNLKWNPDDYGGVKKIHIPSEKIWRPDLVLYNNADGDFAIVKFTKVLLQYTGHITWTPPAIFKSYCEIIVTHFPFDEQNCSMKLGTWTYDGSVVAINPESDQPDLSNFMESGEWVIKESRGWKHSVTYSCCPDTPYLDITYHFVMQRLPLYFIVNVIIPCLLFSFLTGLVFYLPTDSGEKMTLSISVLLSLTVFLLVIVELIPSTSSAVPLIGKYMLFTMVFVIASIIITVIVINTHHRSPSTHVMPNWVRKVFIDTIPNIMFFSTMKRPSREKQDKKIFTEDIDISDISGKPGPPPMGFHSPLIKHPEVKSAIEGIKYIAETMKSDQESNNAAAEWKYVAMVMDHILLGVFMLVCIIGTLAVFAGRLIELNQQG
T2 sequence (P11230 24-501 partner): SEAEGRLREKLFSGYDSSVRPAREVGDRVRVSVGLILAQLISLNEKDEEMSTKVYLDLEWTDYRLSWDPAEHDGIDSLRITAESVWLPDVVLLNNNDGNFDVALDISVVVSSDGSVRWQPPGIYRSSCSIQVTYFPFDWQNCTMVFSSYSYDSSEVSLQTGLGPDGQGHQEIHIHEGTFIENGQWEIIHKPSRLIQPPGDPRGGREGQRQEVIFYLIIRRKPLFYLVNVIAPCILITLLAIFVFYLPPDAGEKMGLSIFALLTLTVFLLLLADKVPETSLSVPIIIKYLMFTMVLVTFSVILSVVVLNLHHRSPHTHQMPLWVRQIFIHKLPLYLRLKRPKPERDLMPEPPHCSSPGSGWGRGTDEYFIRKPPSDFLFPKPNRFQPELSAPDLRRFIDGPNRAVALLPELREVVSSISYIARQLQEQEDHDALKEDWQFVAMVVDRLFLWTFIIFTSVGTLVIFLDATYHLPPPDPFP
T2 sequence (Q07001 22-517): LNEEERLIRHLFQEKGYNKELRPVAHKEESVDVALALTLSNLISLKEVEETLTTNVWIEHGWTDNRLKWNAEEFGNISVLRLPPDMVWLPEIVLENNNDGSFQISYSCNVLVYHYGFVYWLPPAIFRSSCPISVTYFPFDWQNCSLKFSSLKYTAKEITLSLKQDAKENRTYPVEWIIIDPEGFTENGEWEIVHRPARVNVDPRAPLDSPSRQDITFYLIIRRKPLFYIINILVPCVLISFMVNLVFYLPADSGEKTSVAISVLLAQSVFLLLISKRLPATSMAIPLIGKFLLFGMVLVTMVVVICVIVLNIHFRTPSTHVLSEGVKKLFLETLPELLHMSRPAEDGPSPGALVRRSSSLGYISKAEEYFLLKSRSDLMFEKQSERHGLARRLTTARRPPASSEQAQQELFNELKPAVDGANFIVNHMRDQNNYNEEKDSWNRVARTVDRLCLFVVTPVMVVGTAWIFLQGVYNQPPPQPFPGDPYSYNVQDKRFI
T2 sequence (P07510 23-517): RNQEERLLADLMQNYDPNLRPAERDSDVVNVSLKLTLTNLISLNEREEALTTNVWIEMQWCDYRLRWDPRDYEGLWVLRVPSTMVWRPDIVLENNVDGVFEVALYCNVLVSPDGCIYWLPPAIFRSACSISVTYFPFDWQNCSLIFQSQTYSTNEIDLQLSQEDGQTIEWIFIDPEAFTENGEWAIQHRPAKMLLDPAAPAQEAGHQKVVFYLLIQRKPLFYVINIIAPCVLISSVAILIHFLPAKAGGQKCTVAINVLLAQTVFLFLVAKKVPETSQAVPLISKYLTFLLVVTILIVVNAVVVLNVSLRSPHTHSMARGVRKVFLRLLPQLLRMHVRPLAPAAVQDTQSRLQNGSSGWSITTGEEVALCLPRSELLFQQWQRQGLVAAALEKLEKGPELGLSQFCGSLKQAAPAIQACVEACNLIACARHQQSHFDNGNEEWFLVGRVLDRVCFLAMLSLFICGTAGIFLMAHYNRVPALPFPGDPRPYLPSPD
T1 sequence (P09483 31-630): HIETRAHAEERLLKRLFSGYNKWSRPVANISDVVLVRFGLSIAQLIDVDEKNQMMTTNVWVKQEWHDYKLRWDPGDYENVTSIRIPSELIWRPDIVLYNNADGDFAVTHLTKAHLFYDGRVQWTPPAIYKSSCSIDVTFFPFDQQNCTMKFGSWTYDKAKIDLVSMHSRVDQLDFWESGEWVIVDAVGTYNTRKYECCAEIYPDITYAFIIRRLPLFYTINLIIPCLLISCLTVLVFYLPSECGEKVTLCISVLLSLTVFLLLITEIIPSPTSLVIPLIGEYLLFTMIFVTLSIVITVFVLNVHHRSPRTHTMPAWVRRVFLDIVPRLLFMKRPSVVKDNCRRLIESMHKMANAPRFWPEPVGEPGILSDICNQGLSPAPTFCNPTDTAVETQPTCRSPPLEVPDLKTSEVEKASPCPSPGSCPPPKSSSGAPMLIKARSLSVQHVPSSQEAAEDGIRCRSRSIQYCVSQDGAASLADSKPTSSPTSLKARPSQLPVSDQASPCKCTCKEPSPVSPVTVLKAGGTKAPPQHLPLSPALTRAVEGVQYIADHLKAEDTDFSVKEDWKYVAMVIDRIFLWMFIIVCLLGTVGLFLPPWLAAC
T1 sequence (P12390 25-500): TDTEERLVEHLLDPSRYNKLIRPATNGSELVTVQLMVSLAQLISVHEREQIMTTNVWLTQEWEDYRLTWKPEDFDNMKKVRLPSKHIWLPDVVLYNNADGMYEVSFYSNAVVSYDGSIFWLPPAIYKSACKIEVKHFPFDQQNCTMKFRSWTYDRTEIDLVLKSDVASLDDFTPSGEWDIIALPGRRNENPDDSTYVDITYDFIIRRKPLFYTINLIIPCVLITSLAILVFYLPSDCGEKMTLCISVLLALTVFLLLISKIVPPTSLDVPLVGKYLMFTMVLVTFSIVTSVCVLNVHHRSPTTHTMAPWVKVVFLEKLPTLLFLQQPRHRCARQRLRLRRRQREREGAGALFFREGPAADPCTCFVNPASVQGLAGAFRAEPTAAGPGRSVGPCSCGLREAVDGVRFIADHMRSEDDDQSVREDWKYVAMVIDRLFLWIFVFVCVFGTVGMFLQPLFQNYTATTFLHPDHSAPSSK

(3-(3-Pyridyloxy)propyl)methylamine Hemigalactarate [Example 5]
Ki (CNS nicotinic receptors [1]): 13 nM
Emax at muscle-type receptors [2]: 0%
reversal of scopolamine induced amnesia (laboratory rats): significant reversal of scopolamine induced amnesia
EC50 (CNS nicotinic receptors [3]): 960 nM
Emax, rubidium release (CNS nicotinic receptors [3]; relative to 300 uM tetramethylammonium ion): 83%
EC50 (dopamine release): 369 nM
Emax, dopamine release (dopamine release; amount released relative to (S)-(-)-nicotine): 96%
Emax at ganglionic-type receptors [4]: 93%
